Measured values: US6432662B1, “Assay of peroxidase activity” (Pierce Chemical Company, priority 1999, dated 2002)

What was measured:
SA-HRP = SA-HRP (Armoracia rusticana, UniProt P00433); assay: Dot blot application of water soluble azine enhancers (Example 8); assay type: biochemical, horseradish
[1] = target: horseradish peroxidase labeled streptavidin (SA-HRP) (Armoracia rusticana, UniProt P00433); assay: Blot application comparing enhancer working solutions (Example 7); assay type: biochemical; conditions: after the 30 minute reexposure, enhancer: 1c […] (present invention) or 52 μM (low), 1b 52 μM, 3 13.5 μM
horseradish peroxidase labeled streptavidin (SA-HRP), sequence (P00433 31-338 limits assumed): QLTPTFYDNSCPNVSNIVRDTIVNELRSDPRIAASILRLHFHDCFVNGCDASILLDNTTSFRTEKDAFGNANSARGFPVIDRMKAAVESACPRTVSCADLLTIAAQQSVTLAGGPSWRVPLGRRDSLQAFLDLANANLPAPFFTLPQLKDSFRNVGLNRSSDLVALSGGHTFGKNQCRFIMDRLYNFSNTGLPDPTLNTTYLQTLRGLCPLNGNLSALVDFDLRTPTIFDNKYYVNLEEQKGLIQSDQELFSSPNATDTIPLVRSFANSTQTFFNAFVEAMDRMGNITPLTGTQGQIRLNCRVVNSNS
horseradish peroxidase labeled streptavidin (SA-HRP), sequence (P22629 25-183 partner): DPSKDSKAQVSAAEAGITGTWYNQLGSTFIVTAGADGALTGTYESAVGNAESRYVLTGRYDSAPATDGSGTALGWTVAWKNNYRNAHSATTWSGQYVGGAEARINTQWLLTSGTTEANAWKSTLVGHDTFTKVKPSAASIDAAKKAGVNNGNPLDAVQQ

[2] = 50 μM enhancer with 1 mM Sodium Luminol
[3] = […] enhancer with 5 mM Sodium Luminol

SA-HRP, sequence (P00433 31-338 limits assumed): as the sequence (P00433 31-338 limits assumed) above
SA-HRP, sequence (P22629 25-183 partner): as the sequence (P22629 25-183 partner) above

Substance	Net Relative Intensity at 10 pg SA-HRP (SA-HRP; [2])	Net Relative Intensity at 100 pg SA-HRP (SA-HRP; [2])	Net Relative Intensity at 10 pg SA-HRP (SA-HRP; [3])	Net Relative Intensity at 100 pg SA-HRP (SA-HRP; [3])	Relative Intensity 2 pg SA-HRP [1]	Relative Intensity 5 pg SA-HRP [1]	Relative Intensity 20 pg SA-HRP [1]
2-chloro-10 (3 trimethyl amino propyl)-phenothiazonan bromide [Azine Enhancer 1d]	0	0	225,632	311,048	–	–	–
Phenylindophenol/indophenol [Phenolic Enhancer 3]	–	–	–	–	0	106,776	598,072
